These results are taken from ChEMBL document CHEMBL4840323, “Discovery of an Orally Bioavailable Small-Molecule Inhibitor for the β-Catenin/B-Cell Lymphoma 9 Protein-Protein Interaction” (J Med Chem, 2021).

Series [1] deals with T1, beta-catenin-B-cell lymphoma 9 protein complex (Homo sapiens, UniProt P35222).
T1 sequence (P35222 whole entry): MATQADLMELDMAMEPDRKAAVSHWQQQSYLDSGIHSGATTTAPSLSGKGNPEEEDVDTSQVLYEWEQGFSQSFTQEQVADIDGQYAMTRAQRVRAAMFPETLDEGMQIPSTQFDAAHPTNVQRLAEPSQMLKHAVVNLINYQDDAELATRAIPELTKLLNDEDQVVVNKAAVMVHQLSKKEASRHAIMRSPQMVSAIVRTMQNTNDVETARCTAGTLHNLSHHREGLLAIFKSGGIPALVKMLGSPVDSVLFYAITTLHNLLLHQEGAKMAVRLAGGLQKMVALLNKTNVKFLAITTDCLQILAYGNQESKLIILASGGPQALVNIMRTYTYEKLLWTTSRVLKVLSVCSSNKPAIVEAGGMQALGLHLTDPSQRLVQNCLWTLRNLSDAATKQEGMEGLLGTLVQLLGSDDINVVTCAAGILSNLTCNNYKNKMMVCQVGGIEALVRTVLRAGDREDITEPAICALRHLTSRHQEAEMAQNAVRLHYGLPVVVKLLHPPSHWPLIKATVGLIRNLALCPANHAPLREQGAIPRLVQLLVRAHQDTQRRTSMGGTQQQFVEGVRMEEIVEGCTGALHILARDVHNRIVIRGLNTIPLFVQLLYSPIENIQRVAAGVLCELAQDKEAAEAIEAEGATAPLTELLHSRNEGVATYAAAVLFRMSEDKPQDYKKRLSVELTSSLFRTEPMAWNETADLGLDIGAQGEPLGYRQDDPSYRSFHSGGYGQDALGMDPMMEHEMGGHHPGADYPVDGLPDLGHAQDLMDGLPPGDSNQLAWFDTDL
T1 sequence (O00512 whole entry): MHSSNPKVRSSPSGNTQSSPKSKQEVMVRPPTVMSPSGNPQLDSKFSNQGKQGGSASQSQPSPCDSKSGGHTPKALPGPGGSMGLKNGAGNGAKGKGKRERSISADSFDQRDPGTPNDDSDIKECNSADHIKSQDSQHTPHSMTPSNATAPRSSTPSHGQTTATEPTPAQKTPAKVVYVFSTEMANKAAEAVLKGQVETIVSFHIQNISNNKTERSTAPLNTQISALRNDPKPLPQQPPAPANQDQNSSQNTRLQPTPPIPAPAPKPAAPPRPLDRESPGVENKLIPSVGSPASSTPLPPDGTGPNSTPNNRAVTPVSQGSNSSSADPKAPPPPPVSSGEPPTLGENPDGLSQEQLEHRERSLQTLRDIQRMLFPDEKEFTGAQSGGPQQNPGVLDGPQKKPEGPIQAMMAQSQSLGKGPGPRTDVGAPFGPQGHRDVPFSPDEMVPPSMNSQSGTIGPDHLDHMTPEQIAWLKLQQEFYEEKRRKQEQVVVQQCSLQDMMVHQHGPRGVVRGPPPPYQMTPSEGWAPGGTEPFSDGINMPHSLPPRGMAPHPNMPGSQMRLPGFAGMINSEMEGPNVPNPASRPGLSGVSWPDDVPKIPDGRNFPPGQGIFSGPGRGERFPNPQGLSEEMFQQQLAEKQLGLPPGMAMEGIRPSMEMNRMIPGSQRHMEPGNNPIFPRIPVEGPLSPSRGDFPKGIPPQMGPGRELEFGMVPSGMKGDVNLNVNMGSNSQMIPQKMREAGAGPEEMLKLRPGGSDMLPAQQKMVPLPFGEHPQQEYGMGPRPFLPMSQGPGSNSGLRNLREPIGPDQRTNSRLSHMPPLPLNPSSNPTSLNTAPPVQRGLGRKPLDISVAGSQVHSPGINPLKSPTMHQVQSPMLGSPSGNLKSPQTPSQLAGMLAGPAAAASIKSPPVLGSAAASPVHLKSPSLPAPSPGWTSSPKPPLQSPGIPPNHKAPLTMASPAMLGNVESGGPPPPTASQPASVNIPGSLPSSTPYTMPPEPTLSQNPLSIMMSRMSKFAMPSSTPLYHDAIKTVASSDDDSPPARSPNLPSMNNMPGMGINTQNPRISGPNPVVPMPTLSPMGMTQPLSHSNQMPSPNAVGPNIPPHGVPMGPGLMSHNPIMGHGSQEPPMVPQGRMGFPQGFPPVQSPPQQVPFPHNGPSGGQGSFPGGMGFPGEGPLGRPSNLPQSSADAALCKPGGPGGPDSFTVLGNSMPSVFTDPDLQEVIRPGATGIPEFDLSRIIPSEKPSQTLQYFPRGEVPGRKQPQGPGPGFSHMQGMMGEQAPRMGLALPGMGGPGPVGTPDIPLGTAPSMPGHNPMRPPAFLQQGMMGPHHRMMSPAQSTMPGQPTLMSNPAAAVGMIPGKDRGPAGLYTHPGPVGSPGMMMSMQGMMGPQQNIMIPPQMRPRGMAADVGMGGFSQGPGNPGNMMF
The series is described as follows: Inhibition of C-terminal 6-His-tagged beta-catenin (1 to 781 residues) (unknown origin) expressed in Escherichia coli BL21 (DE3)-N-terminal biotinylated human BCL9 (350 to 375 residues) protein-protein interaction incubated for 1 hr by Alphascreen assay. A general note: Alpha assays give light when donor and acceptor beads are brought close together.

Series [2] has as its target T1, beta-catenin-B-cell lymphoma 9 protein complex. The series is described as follows: Inhibition of N-terminal 6-His-tagged beta-catenin (1 to 781 residues) (unknown origin) expressed in Escherichia coli BL21 (DE3)-N-terminal biotinylated human BCL9 (350 to 375 residues) protein-protein interaction incubated for 1 hr by Alphascreen assay.
Series [3] in a line: Intrinsic clearance in human liver microsomes at 1 uM measured up to 60 mins in presence of NADPH by LC-MS/SM analysis. Type of series: ADME, Microsome. In general terms: Liver microsomes are vesicles of endoplasmic reticulum, rich in cytochrome P450 enzymes.
Series [4] is described as follows: Half life in human liver microsomes at 1 uM measured up to 60 mins in presence of NADPH by LC-MS/SM analysis. Particulars: 1 h. It counts as ADME, Microsome.
Series [5] is described as follows: Half life in mouse liver microsomes at 1 uM measured up to 60 mins in presence of NADPH by LC-MS/SM analysis. Particulars: 1 h. Type of series: ADME, Microsome.
A short description of series [6]: Intrinsic clearance in mouse liver microsomes at 1 uM measured up to 60 mins in presence of NADPH by LC-MS/SM analysis. Type of series: ADME, Microsome. Particulars: 1 h.
Another series deals with MCF-10A. The series is described as follows: cells. Particulars: Homo sapiens, 72 h.
The test system of another series is HCT-116. The series is described as follows: cells. Particulars: Homo sapiens, HCT-116, 72 h.
In the next series the test system is MDA-MB-468. The series is described as follows: cells. Particulars: Homo sapiens, MDA-MB-468, 72 h.
In a further series the test system is SW480. The series is described as follows: cells. Particulars: Homo sapiens, SW480, 72 h.
Another series concerns MDA-MB-231. The series is described as follows: cells. Particulars: Homo sapiens, MDA-MB-231, 72 h.
In the next series the target is T2, Catenin beta-1 (Homo sapiens, UniProt P35222).
T2 sequence (P35222 whole entry): T1 sequence (P35222 whole entry)
The series is described as follows: Inhibition of beta-catenin (unknown origin) transfected in HEK293 cells cotransfected with pCMV-RL assessed as reduction in luciferase activity measured after 24 hrs by TOPFlash luciferase reporter assay. It counts as cell-based.

For orientation: IC50 means the concentration that inhibits the measured activity by half. The term Ki denotes a dissociation constant, usually derived from enzyme kinetics or from competition with a known ligand. The low end stands for tighter binding, the high end for weaker binding.

Description for HCT-116: Antiproliferative activity against human HCT-116 cells assessed as cell growth inhibition measured after 72 hrs by MTS assay
Description for MCF-10A: Cytotoxicity against human MCF-10A cells assessed as cell growth inhibition measured after 72 hrs by MTS assay
Description for MDA-MB-231: Antiproliferative activity against human MDA-MB-231 cells assessed as cell growth inhibition measured after 72 hrs by MTS assay
Description for MDA-MB-468: Antiproliferative activity against human MDA-MB-468 cells assessed as cell growth inhibition measured after 72 hrs by MTS assay
Description for SW480: Antiproliferative activity against human SW480 cells assessed as cell growth inhibition measured after 72 hrs by MTS assay

Take `CC(C)c1ccc(CNC(=O)[C@H]2CCCN(c3cccc(OC(C)(C)C(=O)O)c3)C2)cc1`: the IC50 in series [1] is greater than 100 µM. Further, the Ki in [2] was greater than 90 µM.

Regarding `CC(C)(Oc1cccc(N2CCC[C@@H](C(=O)N(Cc3ccc(C(C)(C)C)cc3)C3CC3)C2)c1)C(=O)N1CCNCC1`, the 50% inhibitory concentration (IC50) in series [1] came out at 14 µM. This compound also showed a Ki in series [2] of 13 µM.

As to `CC(C)c1ccc(CNC(=O)[C@@H]2CCCN(c3cccc(OC(C)(C)C(=O)O)c3)C2)cc1`, inhibition in series [1] was half-maximal at 51 µM (IC50). The compound also displayed an inhibition constant (Ki) in series [2] of 46 µM.

In the case of `CC(C)(Oc1cccc(N2CCC[C@@H](C(=O)N(Cc3ccc(-c4cccnc4)cc3)C3CC3)C2)c1)C(=O)N1CCNCC1`, 73 µM corresponded to half-maximal inhibition in series [1] (IC50). In addition, the inhibition constant Ki in [2] came out at 66 µM.

As for `CC(C)c1ccc(CN(C)C(=O)[C@@H]2CCCN(c3cccc(OC(C)(C)C(=O)N4CCNCC4)c3)C2)cc1`, in series [1], half-maximal inhibition (IC50) was put at 15 µM. Besides, affinity in series [2] was put at a Ki of 14 µM.

Regarding `CCN(Cc1ccc(-c2cn[nH]c2)cc1)C(=O)[C@@H]1CCCN(c2cccc(OC(C)(C)C(=O)N3CCNCC3)c2)C1.Cl`, the CLint at 1 h, 1 µM in [3] stood at 24 µL/min/mg. For the same compound, the t1/2 in series [4] amounted to 28.3 min; in [5] it was 7.7 min. Moreover, the CLint in [6] stood at 90 µL/min/mg.

Regarding `CC(C)(Oc1cccc(N2CCC[C@@H](C(=O)N(Cc3ccc(-c4ccccn4)cc3)C3CC3)C2)c1)C(=O)N1CCNCC1`, in series [1], the concentration for half-maximal inhibition (IC50) was 59 µM. The compound also gave an inhibition constant Ki in series [2] of 54 µM.

As for `Cn1cc(-c2ccc(CN(C(=O)[C@@H]3CCCN(c4cccc(OC(C)(C)C(=O)N5CCNCC5)c4)C3)C3CC3)cc2)cn1`, half-maximal inhibition in series [1] (IC50) required 76 µM. The compound further came in with an inhibition constant Ki in [2] of 68 µM.

In [1], `CCOCCN(Cc1ccc(-c2cn[nH]c2)cc1)C(=O)[C@@H]1CCCN(c2cccc(OC(C)(C)C(=O)N3CCNCC3)c2)C1` had an IC50 of 2.1 µM. In series [2], this compound had a Ki of 1.9 µM.

In series [1], `CC(C)(Oc1cccc(N2CCC[C@@H](C(=O)N(Cc3ccc(C4CCCCC4)cc3)C3CC3)C2)c1)C(=O)N1CCNCC1` yielded an IC50 of 5.3 µM. The affinity in series [2], expressed as Ki, was 4.8 µM.

`CC(C)(Oc1cccc(N2CCC[C@@H](C(=O)N(Cc3ccc(-c4ccsc4)cc3)C3CC3)C2)c1)C(=O)N1CCNCC1`: the midpoint of inhibition in series [1], the IC50, lay at 5.5 µM. In addition, in series [2], the Ki came out at 5 µM.

Take `CCN(Cc1ccc(C(C)C)cc1)C(=O)[C@@H]1CCCN(c2cccc(OC(C)(C)C(=O)N3CCNCC3)c2)C1`: in series [1], half-maximal inhibition (IC50) was put at 12 µM. This compound came in with a Ki in [2] of 11 µM.

Compound `CC(C)(Oc1cccc(N2CCC[C@@H](C(=O)N(Cc3ccc(-c4ccncc4)cc3)C3CC3)C2)c1)C(=O)N1CCNCC1` yielded an IC50 in series [1] of 82 µM. The same compound came in with an inhibitory constant (Ki) in series [2] of 74 µM.

Turning to `O=C1[C@H](Cc2ccc(O)cc2)N2C(=O)CCN(C(=O)NCc3ccccc3)[C@H]2CN1Cc1cccc2ccccc12`, the IC50 is 21 µM in the series on MCF-10A; 38 µM in the series with HCT-116; 31 µM in the series on MDA-MB-468; 6.1 µM in the series with SW480; 7.2 µM in the series on MDA-MB-231.

`CC(C)c1ccc(CNC(=O)[C@@H]2CCCN(c3cccc(OC(C)(C)C(=O)N4CCNCC4)c3)C2)cc1` registered a half-inhibitory concentration (IC50) in [1] of 6.4 µM. In addition, the inhibition constant Ki in series [2] was determined as 5.8 µM.

Compound `CC(C)(Oc1cccc(N2CCC[C@@H](C(=O)N(Cc3ccc(-c4ccn[nH]4)cc3)C3CC3)C2)c1)C(=O)N1CCNCC1` gave an IC50 in series [1] of 8.9 µM. In [2], this compound gave a Ki of 8 µM.

Take `CC(C)c1ccc(CN(C(=O)[C@@H]2CCCN(c3cccc(OC(C)(C)C(=O)N4CCNCC4)c3)C2)C2CC2)cc1`: the half-inhibitory concentration (IC50) in [1] came out at 3 µM. In series [2], this compound yielded a Ki of 2.7 µM.

`CC(C)c1ccc(CN(C(=O)[C@@H]2CCCN(c3cccc(OC(C)(C)C(=O)N4CCNCC4)c3)C2)C(C)C)cc1` displayed an IC50 in [1] of 5.1 µM. The compound further returned an inhibition constant (Ki) in [2] of 4.6 µM.

As to `Cc1cc(-c2ncc(CC(=O)Nc3ccc(-c4cnccn4)cn3)cc2C)ccn1` [WNT-974], the IC50 in the series with MCF-10A, in the series with HCT-116, with MDA-MB-468, in the series on SW480 and in the series on MDA-MB-231 was greater than 100 µM in each case.

The compound `CC(C)(Oc1cccc(N2CCC[C@@H](C(=O)N(Cc3ccc(-c4cn[nH]c4)cc3)C3CC3)C2)c1)C(=O)N1CCCCC1` came in with an IC50 in series [1] of 53 µM. In series [2], the inhibition constant Ki worked out at 43 µM.

In the case of `CCN(CC)CCNC(=O)c1c(C)[nH]c(/C=C2\C(=O)Nc3ccc(F)cc32)c1C` [SUNITINIB], in [5], the t1/2 was 13 min. For the same compound, the CLint in [6] stood at 53 µL/min/mg.

As to `CN1CCN(C(=O)C(C)(C)Oc2cccc(N3CCC[C@@H](C(=O)N(Cc4ccc(-c5cn[nH]c5)cc4)C4CC4)C3)c2)CC1`, the concentration for half-maximal inhibition (IC50) in [1] is 39 µM; on Catenin beta-1, greater than 200 µM. The compound further displayed an inhibition constant Ki in [2] of 32 µM.

In series [1], `CC(C)(Oc1cccc(N2CCC[C@@H](C(=O)N(Cc3ccc(-c4ccccc4)cc3)C3CC3)C2)c1)C(=O)N1CCNCC1` returned an IC50 of 4.5 µM. The compound also came in with an inhibition constant Ki in series [2] of 4 µM.
